Data on three molecules can be found in US20260345596A1, “TREATMENT OF LOCALLY ADVANCED OR METASTATIC UROTHELIAL CARCINOMA WITH ERDAFINITIB” (priority 2023, published 2026).

For data set [1] the following is noted: in vivo; cited from earlier work.
The subject of data set [2] is locally advanced or metastatic urothelial carcinoma with selected FGFR3 alterations. Description: Study BLC3001 Cohort 2: efficacy of BALVERSA versus pembrolizumab. Format: in vivo, human. The settings on record: (95% CI).
Experimental: Subjects are assigned to Cohort 1 or Cohort 2 based upon prior treatment with an anti-PD-(L)1 agent. […] Cohort 1 and Cohort 2 are assessed independently.

Take `CC(=O)O[C@@]12CO[C@@H]1C[C@H](O)[C@@]1(C)C(=O)[C@H](O)C3=C(C)[C@@H](OC(=O)[C@H](O)[C@@H](NC(=O)OC(C)(C)C)c4ccccc4)C[C@@](O)([C@@H](OC(=O)c4ccccc4)[C@H]21)C3(C)C` [Docetaxel]: in data set [1], the Cystoid macular edema entry is recorded as “Cystoid macular edema has been reported” and the Severe fluid retention entry is “Severe fluid retention has been reported”.
For the molecule `CC[C@]12C=CCN3CC[C@@]4(c5cc([C@@]6(C(=O)OC)C[C@@H]7C[C@@H](C(C)(F)F)CN(Cc8c6[nH]c6ccccc86)C7)c(OC)cc5N(C)[C@H]4[C@@](O)(C(=O)OC)[C@@H]1OC(C)=O)[C@@H]32` [Vinflunine], the “Posterior reversible encephalopathy syndrome (PRES)” value in data set [1] is on record as “Cases of posterior reversible encephalopathy syndrome (PRES) have been observed”.
As for “Pembrolizumab: anti-PD-(L)1 agent pembrolizumab, 200 mg every 3 weeks”, in data set [2], the “Median OS” value is given as 11.1 (95% CI: 9.7, 13.6) months.
